The IC50 is the midpoint of a concentration-inhibition curve. For orientation: EC50 means the concentration at which the effect is half-maximal.

One test deals with T1, human DGKα (Homo sapiens, UniProt P23743).
T1 construct: TVMV protease cleavage site (C); Hexa-His (C); made in house; host or cells: Sf9 insect cells (baculovirus, Bac-to-Bac)
Description: DGKα LIPGLO assay (extruded liposome substrate), in vitro DGK inhibition. The test is classed as biochemical. The settings on record: liposome (LIPGLO) assay; read-out: DGKa LIPGLO IC50.

For another test, the system named is Human venous whole blood. In words: Human whole blood IFN-γ assay.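 Also: blood from healthy donors exposed to compound for 1 h before stimulation with anti-CD3 and anti-CD28 at 1 µg/mL each, IFN-γ quantified in supernatant by AlphaLISA.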 It is filed as cell-based. The settings on record: human whole blood, normalized to 3 μM reference compound with anti-CD3 plus anti-CD28 as 100% activation, read-out: INFg Whole Blood Normalized Agonist EC50.
A further test deals with T2, human DGKζ (Homo sapiens, UniProt Q13574).
T2 construct: TVMV protease cleavage site (C); Hexa-His (C); made in house; host or cells: Sf9 insect cells (baculovirus, Bac-to-Bac)
T2 sequence (Q13574 with tags, fused parts or gaps isoform Q13574-4): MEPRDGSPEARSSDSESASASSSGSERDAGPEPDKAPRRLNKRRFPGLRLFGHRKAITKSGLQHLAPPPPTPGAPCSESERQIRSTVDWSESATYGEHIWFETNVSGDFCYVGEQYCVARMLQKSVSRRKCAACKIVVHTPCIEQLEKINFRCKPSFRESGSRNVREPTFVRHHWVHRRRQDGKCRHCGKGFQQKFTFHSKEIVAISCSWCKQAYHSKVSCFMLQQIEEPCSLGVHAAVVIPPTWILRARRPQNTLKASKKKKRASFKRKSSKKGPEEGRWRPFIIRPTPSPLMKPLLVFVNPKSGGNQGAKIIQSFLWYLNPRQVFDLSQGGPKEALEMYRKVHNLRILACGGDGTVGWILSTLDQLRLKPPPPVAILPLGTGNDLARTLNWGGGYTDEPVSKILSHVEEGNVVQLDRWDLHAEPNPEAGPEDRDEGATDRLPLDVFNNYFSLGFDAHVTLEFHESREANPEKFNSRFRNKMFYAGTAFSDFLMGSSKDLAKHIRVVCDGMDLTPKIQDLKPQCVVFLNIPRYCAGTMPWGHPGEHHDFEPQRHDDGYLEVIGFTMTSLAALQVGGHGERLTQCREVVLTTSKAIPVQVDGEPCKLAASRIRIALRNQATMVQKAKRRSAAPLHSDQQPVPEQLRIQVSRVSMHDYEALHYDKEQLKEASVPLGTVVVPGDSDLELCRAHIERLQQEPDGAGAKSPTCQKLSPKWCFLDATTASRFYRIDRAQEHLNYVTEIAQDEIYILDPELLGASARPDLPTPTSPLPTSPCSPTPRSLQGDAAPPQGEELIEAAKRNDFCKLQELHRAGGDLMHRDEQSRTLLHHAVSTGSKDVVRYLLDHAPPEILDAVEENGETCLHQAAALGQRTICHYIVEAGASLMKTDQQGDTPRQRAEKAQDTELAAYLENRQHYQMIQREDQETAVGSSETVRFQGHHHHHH
Description: DGKζ LIPGLO assay (extruded liposome substrate), in vitro DGK inhibition. The test is classed as biochemical. The settings on record: liposome (LIPGLO) assay; read-out: DGKz LIPGLO IC50.

Counter-ions that a name gives are not always drawn. Like-named read-outs stand apart in the source and are kept apart here.

T1 sequence (P23743 with tags, fused parts or gaps): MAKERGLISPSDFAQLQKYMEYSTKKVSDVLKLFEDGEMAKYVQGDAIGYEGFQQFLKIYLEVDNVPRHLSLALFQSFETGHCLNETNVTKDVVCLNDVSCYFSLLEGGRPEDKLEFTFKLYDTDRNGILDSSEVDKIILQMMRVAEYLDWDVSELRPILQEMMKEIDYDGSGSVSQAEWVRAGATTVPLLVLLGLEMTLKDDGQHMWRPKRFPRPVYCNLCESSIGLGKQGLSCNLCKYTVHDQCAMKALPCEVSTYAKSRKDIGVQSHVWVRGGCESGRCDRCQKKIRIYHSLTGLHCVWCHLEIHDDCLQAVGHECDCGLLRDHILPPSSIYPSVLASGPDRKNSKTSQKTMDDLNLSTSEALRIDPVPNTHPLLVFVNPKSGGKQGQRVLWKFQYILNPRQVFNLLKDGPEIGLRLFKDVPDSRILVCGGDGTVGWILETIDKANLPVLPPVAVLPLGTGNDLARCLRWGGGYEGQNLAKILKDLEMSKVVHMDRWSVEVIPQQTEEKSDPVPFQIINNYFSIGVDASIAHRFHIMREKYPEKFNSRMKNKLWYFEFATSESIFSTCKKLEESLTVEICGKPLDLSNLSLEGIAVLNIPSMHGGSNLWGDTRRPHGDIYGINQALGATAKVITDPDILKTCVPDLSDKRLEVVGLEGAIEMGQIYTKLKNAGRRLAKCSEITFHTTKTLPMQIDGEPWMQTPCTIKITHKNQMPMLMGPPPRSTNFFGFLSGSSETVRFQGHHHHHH
Description for Human venous whole blood: Human Whole Blood IFN-γ Assay
Human venous whole blood (22.5 μL per well), obtained from healthy donors, was pre-treated with compounds for one hour at 37° C. in a humidified 95% air/5% CO2 incubator. The blood was stimulated with 2.5 μL anti-human CD3 and anti-CD28 mAb at a final concentration of 1 μg/mL each for 24 hours at 37° C. IFN-γ in the supernatants was measured using AlphLISA kit (Cat # AL217).

As to `C[C@@H]1CN(c2cc(=O)n(C)c3ccc(C#N)nc23)[C@@H](C)CN1C(c1ccccc1)c1c(F)cccc1F` (single isomer, unassigned) [Example 273, TFA], the 50% inhibitory concentration (IC50) on human DGKα is 3800 nM; at human DGKζ, 15000 nM. Moreover, the EC50 with Human venous whole blood (TFA) worked out at 7100 nM.
Take `Cc1ccc(C(c2ccc(C#N)cc2)N2C[C@H](C)N(c3cc(=O)n(C)c4ccc(C#N)nc34)C[C@H]2C)cc1` (single isomer, unassigned) [Example 310, TFA salt]: the half-inhibitory concentration (IC50) at human DGKα came out at 1300 nM; at human DGKζ, 1600 nM. In addition, in the test on Human venous whole blood (Homo sapiens, 24 h), the EC50 was determined as 1900 nM.
Regarding `C[C@@H]1CN(c2c(C#N)c(=O)n(C)c3ccc(C#N)nc23)CCN1C(c1ccc(Cl)cc1)c1ccncn1` (single isomer, unassigned) [Example 319], the half-maximal inhibitory concentration (IC50) on human DGKα came to 2200 nM; at human DGKζ it was 6600 nM. In addition, the EC50 with Human venous whole blood (Homo sapiens, 24 h) was 1600 nM.
Regarding `C[C@@H]1CN(c2c(F)c(=O)n(C)c3ccc(C#N)nc23)[C@@H](C)CN1C(c1ccc(F)cc1)c1c(F)cccc1F` (single isomer, unassigned) [Example 329], the results for the IC50 on human DGKα and on human DGKζ were 3600 nM and 4500 nM, respectively. Besides, the EC50 with Human venous whole blood was found to be 13000 nM.
The matching figures for `C[C@@H]1CN(c2c(F)c(=O)n(C)c3ccc(C#N)nc23)[C@@H](C)CN1C(c1ccc(F)cc1)c1cccc(F)c1` (single isomer, unassigned) [Example 330]: 260 nM, 500 nM and 1200 nM.
The matching figures for `C[C@@H]1CN(c2c(F)c(=O)n(C)c3ccc(C#N)nc23)[C@@H](C)CN1C(c1ccc(F)cc1)c1cccc(F)c1` (single isomer, unassigned) [Example 331]: 1700 nM, 1900 nM and 20000 nM.
The matching figures for `C[C@@H]1CN(c2c(F)c(=O)n(C)c3ccc(C#N)nc23)[C@@H](C)CN1C(c1ccc(F)cc1)c1c(F)cccc1F` (single isomer, unassigned) [Example 336]: 740 nM, 230 nM and 2000 nM.
With `CC[C@@H]1CN(c2cc(=O)n(C)c3ccc(C#N)nc23)[C@@H](C)CN1C(c1ccc(OC(F)(F)F)cc1)c1ccccn1` (single isomer, unassigned) [Example 340], the IC50 on human DGKα amounted to 320 nM; on human DGKζ it was 220 nM. Further, the EC50 in the test with Human venous whole blood (Homo sapiens, 24 h) was 80 nM.
As for `CC[C@@H]1CN(c2cc(=O)n(C)c3ccc(C#N)nc23)[C@@H](C)CN1C(c1ccc(OC(F)(F)F)cc1)c1ccccn1` (single isomer, unassigned) [Example 341], the results for the IC50 at human DGKα and on human DGKζ were 69 nM and 550 nM, respectively. The 50% effective concentration (EC50) with Human venous whole blood was 120 nM.
As to `CC(c1ccc(C(F)(F)F)cc1)N1C[C@@H](C)N(c2cc(=O)n(C)c3ccc(C#N)nc23)C[C@@H]1C` (single isomer, unassigned) [Example 345], the figures for the IC50 on human DGKα and at human DGKζ were 4000 nM and 33000 nM, respectively. In addition, in the test on Human venous whole blood, the EC50 came out at 6800 nM.
Turning to `CC(c1ccc(C(F)(F)F)cc1)N1C[C@@H](C)N(c2cc(=O)n(C)c3ccc(C#N)nc23)C[C@@H]1C` (single isomer, unassigned) [Example 346], the figures for the 50% inhibitory concentration (IC50) at human DGKα and at human DGKζ were 1300 nM and 1500 nM, respectively. Further, in the test with Human venous whole blood, the 50% effective concentration (EC50) came to 1100 nM.
Regarding `CCc1ccc(C(c2cccc(Cl)c2)N2C[C@H](C)N(c3cc(=O)n(C)c4ccc(C#N)nc34)C[C@H]2C)nc1` (single isomer, unassigned) [Example 355], the half-maximal inhibitory concentration (IC50) on human DGKα was found to be 890 nM; on human DGKζ it was 740 nM. Also, the EC50 with Human venous whole blood (Homo sapiens, 24 h) is 340 nM.
The matching figures for `CCC(c1cc(Cl)cc2c1OCC2)N1C[C@H](C)N(c2cc(=O)n(C)c3ccc(C#N)nc23)C[C@H]1C` (single isomer, unassigned) [Example 356]: > 250000 nM, 420 nM and 20000 nM.
The matching figures for `C[C@@H]1CN(c2cc(=O)n(C)c3ccc(C#N)nc23)[C@@H](C)CN1C(c1ccc(F)cc1)C1CCCCO1` (single isomer, unassigned) [Example 358]: 9000 nM, 21000 nM and 1000 nM.
